Test results: patent US20100273814A1, “((PHENYL)IMIDAZOLYL)METHYLHETEROARYL COMPOUNDS” (priority 2007, published 2010)
Where two headings read alike, the source gives them in different places.

Columns and labels:
Format in all cases: cell-based
alpha2A receptor = target: T1, alpha2A receptor (Homo sapiens, UniProt P08913); assay: Receptor Selection and Amplification Technology (RSAT) assay, alpha2A; settings: for Alpha 2A intrinsic activity (efficacy): ratio of maximal effect to that of standard full agonist brimonidine (UK14304), value in brackets
T1 construct: expressed in transfected cells; host or cells: NIH-3T3 cells
T1 sequence (P08913 1-465): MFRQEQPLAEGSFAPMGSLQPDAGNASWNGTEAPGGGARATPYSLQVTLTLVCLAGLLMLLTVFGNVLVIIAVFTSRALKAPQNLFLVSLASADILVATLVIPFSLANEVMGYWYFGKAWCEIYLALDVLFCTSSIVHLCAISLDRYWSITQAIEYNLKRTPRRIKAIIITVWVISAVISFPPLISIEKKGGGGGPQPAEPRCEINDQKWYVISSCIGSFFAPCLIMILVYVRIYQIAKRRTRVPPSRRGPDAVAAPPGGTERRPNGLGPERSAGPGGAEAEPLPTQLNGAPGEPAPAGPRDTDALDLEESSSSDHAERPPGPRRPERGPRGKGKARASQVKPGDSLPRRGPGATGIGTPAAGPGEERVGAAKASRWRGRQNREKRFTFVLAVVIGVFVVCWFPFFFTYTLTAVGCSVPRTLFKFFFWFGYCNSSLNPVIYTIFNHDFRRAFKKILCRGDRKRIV
Protocol: (§1) Receptor Selection and Amplification Technology (RSAT) Assay
(§2) The RSAT assay measures a receptor-mediated loss of contact inhibition that results in selective proliferation of receptor-containing cells in a mixed population of confluent cells. The increase in cell number is assessed with an appropriate transfected marker gene such as β-galactosidase, the activity of which can be easily measured in a 96-well format. Receptors that activate the G protein, Gq, elicit this response. Alpha2 receptors, which normally couple to Gi, activate the RSAT response when coexpressed with a hybrid Gq protein that has a Gi receptor recognition domain, called Gq/i5.
(§3) NIH-3T3 cells are plated at a density of 2×10^6 cells in 15 cm dishes and maintained in Dulbecco's modified Eagle's medium supplemented with 10% calf serum. One day later, cells are cotransfected by calcium phosphate precipitation with mammalian expression plasmids encoding p-SV-β-galactosidase (5-10 μg), receptor (1-2 μg) and G protein (1-2 μg). 40 μg salmon sperm DNA may also be included in the transfection mixture. Fresh media is added on the following day and 1-2 days later, cells are harvested and frozen in 50 assay aliquots. Cells are thawed and […] added to 100 aliquots of various concentrations of drugs in triplicate in 96-well dishes. Incubations continue 72-96 hr at 37° C. After washing with phosphate-buffered saline, β-galactosidase enzyme activity is determined by adding 200 μl of the chromogenic substrate (consisting of 3.5 mM o-nitrophenyl-β-D-galactopyranoside and 0.5% nonidet P-40 in phosphate buffered saline), incubating overnight at 30° C. and measuring optical density at 420 nm. The absorbance is a measure of enzyme activity, which depends on cell number and reflects a receptor-mediated cell proliferation. The efficacy or intrinsic activity is calculated as a ratio of the maximal effect of the drug to the maximal effect of a standard full agonist for each receptor subtype. Brimonidine, also called UK14304, the chemical structure of which is shown below, is used as the standard agonist for the alpha2A, alpha2B and alpha2C receptors. The EC50 is the concentration at which the drug effect is half of its maximal effect.
(§4) EC50 values are nanomolar. ND stands for “not determinable” at concentrations less than 10 micromolar. IA stands for “intrinsic activity.”

alpha2B receptor = target: T2, alpha2B receptor (Homo sapiens, UniProt P18089); assay: Receptor Selection and Amplification Technology (RSAT) assay, alpha2B; settings: for Alpha 2B intrinsic activity (efficacy): ratio of maximal effect to that of standard full agonist brimonidine (UK14304), value in brackets
T2 construct: expressed in transfected cells; host or cells: NIH-3T3 cells
T2 sequence (P18089 1-450): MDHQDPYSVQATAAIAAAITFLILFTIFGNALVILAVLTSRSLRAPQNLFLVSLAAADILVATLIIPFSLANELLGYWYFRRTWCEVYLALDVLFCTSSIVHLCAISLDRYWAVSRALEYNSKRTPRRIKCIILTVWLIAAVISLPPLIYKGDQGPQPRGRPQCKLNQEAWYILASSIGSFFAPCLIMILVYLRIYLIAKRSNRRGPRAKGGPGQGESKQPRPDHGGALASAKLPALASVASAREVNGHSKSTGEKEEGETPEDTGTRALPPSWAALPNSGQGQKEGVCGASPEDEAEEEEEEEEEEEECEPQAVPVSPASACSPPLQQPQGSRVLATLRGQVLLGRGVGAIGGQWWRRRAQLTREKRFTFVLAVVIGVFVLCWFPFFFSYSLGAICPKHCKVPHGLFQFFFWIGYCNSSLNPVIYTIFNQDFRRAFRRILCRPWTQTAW
Protocol: as §1, §2, §3, §4

alpha2C receptor = target: T3, alpha2C receptor (Homo sapiens, UniProt P18825); assay: Receptor Selection and Amplification Technology (RSAT) assay, alpha2C; settings: for Alpha 2C intrinsic activity (efficacy): ratio of maximal effect to that of standard full agonist brimonidine (UK14304), value in brackets
T3 construct: expressed in transfected cells; host or cells: NIH-3T3 cells
T3 sequence (P18825 1-462): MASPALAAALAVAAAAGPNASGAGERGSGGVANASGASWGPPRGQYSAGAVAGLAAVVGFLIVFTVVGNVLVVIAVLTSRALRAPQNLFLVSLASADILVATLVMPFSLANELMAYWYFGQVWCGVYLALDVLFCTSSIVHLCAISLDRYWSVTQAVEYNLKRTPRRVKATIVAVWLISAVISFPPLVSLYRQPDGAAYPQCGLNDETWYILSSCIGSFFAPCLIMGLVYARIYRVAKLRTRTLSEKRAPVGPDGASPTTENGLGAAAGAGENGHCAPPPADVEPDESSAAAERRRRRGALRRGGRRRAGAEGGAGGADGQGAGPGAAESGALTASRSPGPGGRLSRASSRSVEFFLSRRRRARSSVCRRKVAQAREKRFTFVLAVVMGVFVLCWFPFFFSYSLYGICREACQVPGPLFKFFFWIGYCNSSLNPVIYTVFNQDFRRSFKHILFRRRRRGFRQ
Protocol: as §1, §2, §3, §4

[1] = RSAT, transfected NIH-3T3 cells, value outside brackets, read-out: Alpha 2A EC50 (potency)
[2] = RSAT, transfected NIH-3T3 cells, value outside brackets, read-out: Alpha 2B EC50 (potency)
[3] = RSAT, transfected NIH-3T3 cells, value outside brackets, read-out: Alpha 2C EC50 (potency)

| SMILES | EC50 (alpha2A receptor; [1]) [nM] | Alpha 2A intrinsic activity (efficacy) (alpha2A receptor; RSAT) | EC50 (alpha2B receptor; [2]) [nM] | Alpha 2B intrinsic activity (efficacy) (alpha2B receptor; RSAT) | EC50 (alpha2C receptor; [3]) [nM] | Alpha 2C intrinsic activity (efficacy) (alpha2C receptor; RSAT) | EC50 (alpha2B receptor) [nM] | EC50 (alpha2A receptor) [nM] | EC50 (alpha2C receptor) [nM] |
| --- | --- | --- | --- | --- | --- | --- | --- | --- | --- |
| Cc1cccc(C(c2ccccn2)c2c[nH]cn2)c1C (stereo not shown) [2-((2,3-dimethylphenyl)(1H-imidazol-4-yl)methyl)pyridine] | 1930 | 0.39 | 0.92 | 1.22 | 356 | 0.64 |  |  |  |
| Fc1c(C(c2ccccn2)c2c[nH]cn2)cccc1C(F)(F)F (stereo not shown) [2-((2-fluoro-3-(trifluoromethyl)phenyl)(1H-imidazol-5-yl)methyl)pyridine] | > 10000 | 0.08 | 39 | 1.1 | 507 | 1.09 |  |  |  |
| Fc1c(Cl)cccc1C(c1c[nH]cn1)c1cccs1 (stereo not shown) |  | 0.21 |  | 0.93 |  | 0.28 | 46 |  |  |
| Cc1ccccc1C(c1ccncc1)c1c[nH]cn1 (stereo not shown) [4-((2-methylphenyl)(1H-imidazol-5-yl)methyl)pyridine] | > 10000 | 0.06 | 63 | 0.82 | 265 | 1.08 |  |  |  |
| Cc1c(Cl)cccc1C(c1ccncc1)c1c[nH]cn1 (stereo not shown) [4-((3-chloro-2-methylphenyl)(1H-imidazol-5-yl)methyl)pyridine] | > 10000 | 0.11 | 10.3 | 1.10 | 83 | 0.46 |  |  |  |
| Fc1c(C(c2ccncc2)c2c[nH]cn2)cccc1C(F)(F)F (stereo not shown) [4-((2-fluoro-3-(trifluoromethyl)phenyl)(1H-imidazol-5-yl)methyl)pyridine] | > 10000 | 0.14 | 45 | 1.29 | > 10000 | 0.29 |  |  |  |
| Fc1cccc(C(c2cccnc2)c2c[nH]cn2)c1 (stereo not shown) [3-((3-fluorophenyl)(1H-imidazol-5-yl)methyl)pyridine] | > 10000 | 0.05 | 222 | 1.01 | 3640 | 0.17 |  |  |  |
| Cc1cccc(C(c2cccnc2)c2c[nH]cn2)c1C (stereo not shown) [3-((2,3-dimethylphenyl)(1H-imidazol-5-yl)methyl)pyridine] | > 10000 | 0.19 | 0.33 | 1.25 | 14 | 0.55 |  |  |  |
| Fc1cccc(C(c2ccncc2)c2c[nH]cn2)c1 (stereo not shown) [4-((3-fluorophenyl)(1H-imidazol-5-yl)methyl)pyridine] | > 10000 | 0.04 | 562 | 0.93 | > 10000 | 0.23 |  |  |  |
| c1ccc(C(c2cccnc2)c2c[nH]cn2)cc1 (stereo not shown) [3-((phenyl)(1H-imidazol-5-yl)methyl)pyridine] | > 10000 | 0.11 | 190 | 0.72 | > 10000 | 0.16 |  |  |  |
| Clc1cccc(C(c2ccccn2)c2c[nH]cn2)c1Cl (stereo not shown) [2-((2,3-dichlorophenyl)(1H-imidazol-5-yl)methyl)pyridine] |  | 0.21 |  | .85 |  | 0.39 | 8.7 | > 10000 | 784 |
| Clc1cccc(C(c2cccnc2)c2c[nH]cn2)c1Cl (stereo not shown) | 605 | 0.37 | 1.62 | 1.15 | 112 | 0.87 |  |  |  |
| Cc1ccccc1C(c1ccccn1)c1c[nH]cn1 (stereo not shown) [2-((2-methylphenyl)(1H-imidazol-5-yl)methyl)pyridine] | > 10000 | 0.03 | 177 | 0.92 | 213 | 0.57 |  |  |  |
| Fc1c(C(c2cccnc2)c2c[nH]cn2)cccc1C(F)(F)F (stereo not shown) [3-((2-fluoro-3-(trifluoromethyl)phenyl)(1H-imidazol-5-yl)methyl)pyridine] | > 10000 | 0.23 | 5.2 | 1.24 | 32 | 0.42 |  |  |  |
| Cc1c(F)cccc1C(c1ccccn1)c1c[nH]cn1 (stereo not shown) [2-((3-fluoro-2-methylphenyl)(1H-imidazol-5-yl)methyl)pyridine] | > 10000 | 0.04 | 36 | 1.07 | 440 | 0.38 |  |  |  |
